Experimental data reported in publication PMC8464850, “Sulfonium Ligands of the α7 nAChR” (Molecules, 2021).

Assays:
[1] = target: T1, human α7 receptors (Homo sapiens, UniProt P36544); assay: Activation of human α7 receptors expressed in Xenopus oocytes, compounds applied alone (two-electrode voltage clamp, net charge); type: cell-based; conditions: for ability to activate α7 when applied alone: 100 µM
T1 construct: expressed in transfected cells; host or cells: Xenopus laevis oocytes (injected RNA)
T1 sequence (P36544 23-502): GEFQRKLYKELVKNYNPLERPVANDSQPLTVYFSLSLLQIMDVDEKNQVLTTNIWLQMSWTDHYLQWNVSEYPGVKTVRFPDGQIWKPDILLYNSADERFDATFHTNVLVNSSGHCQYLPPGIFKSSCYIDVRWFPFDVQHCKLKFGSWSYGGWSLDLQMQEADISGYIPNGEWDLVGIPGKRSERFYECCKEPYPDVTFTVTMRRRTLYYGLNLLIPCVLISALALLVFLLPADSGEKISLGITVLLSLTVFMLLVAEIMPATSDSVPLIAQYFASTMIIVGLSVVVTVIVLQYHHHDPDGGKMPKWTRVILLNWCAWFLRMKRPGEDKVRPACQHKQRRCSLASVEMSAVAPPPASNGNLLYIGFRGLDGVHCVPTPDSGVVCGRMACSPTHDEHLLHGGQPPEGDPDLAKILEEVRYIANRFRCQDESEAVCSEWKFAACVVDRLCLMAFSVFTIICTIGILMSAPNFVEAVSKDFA
Procedure: The sulfonium compounds (Figure 1) were evaluated for their ability to activate human α7 receptors expressed in Xenopus oocytes (Figure 2A). Responses were measured as net charge. […] The average net-charge response to 100 µM S1 was 47 ± 6% of the control responses to 60 µM ACh from the same cells.
Figure 2 Responses of α7 nAChR to sulfonium compounds. (A) Net-charge responses to the applications of the test compounds applied at 100 µM. Net charge was calculated as the integrated area of inward current over a 120 s interval following the 30 s-pre-application period used to establish an initial baseline. […] (B) Averaged net-charge responses (±SEM, n = 8) to applications of S1 across a range of concentrations. Responses were measured relative to preceding 60 µM ACh control responses and then adjusted for the difference between ACh controls and ACh maximum responses. See text for curve-fit values.
The human nAChR clones were obtained from Jon Lindstrom (University of Pennsylvania, Philadelphia, PA, USA). Mouse muscle subunit clones were obtained from Jim Boulter (Salk Institute, La Jolla, CA, USA) and Paul Gardner (Dartmouth, Hanover, NH, USA). The human resistance-to-cholinesterase 3 (RIC3) clone was obtained from Millet Treinin (Hebrew University, Jerusalem, Israel) and co-injected with α7 to improve the level and speed of α7 receptor expression without affecting the pharmacological properties of the receptors. Subsequent to linearization and purification of the plasmid DNAs, RNAs were prepared using the mMessage mMachine in vitro RNA transcription kit (Ambion, Austin, TX, USA).
Oocytes were surgically removed from mature female Xenopus laevis frogs (Nasco, Ft. Atkinson, WI, USA) as previously described. Frogs were maintained in the Animal Care Service facility of the University of Florida, and all procedures were approved by the University of Florida Institutional Animal Care and Use Committee (approval number 202002669).
Experiments were conducted using OpusXpress 6000A (Molecular Devices, Union City, CA, USA). Both the voltage and current electrodes were filled with 3 M KCl. Oocytes were voltage-clamped at −60 mV at room temperature (24 °C). The oocytes were bath-perfused with Ringer’s solution (115 mM NaCl, 2.5 mM KCl, 1.8 mM CaCl2, 10 mM HEPES, and 1 μM atropine, pH 7.2) at 2 mL/min for α7 receptors, or 4 mL/min for heteromeric nAChR. To evaluate the effects of experimental compounds, responses were compared to control ACh-evoked responses, defined as the average of two initial applications of ACh made before test applications. ACh control concentrations were 60 µM for α7 receptors; 100 µM for α4(3)β2(2) and α3β4 receptors; 30 µM for α4β2α6β2β3 and muscle-type (αβ1εδ) receptors; and 10 µM for α4(3)β2(2) and α4(2)β2(2)α5 receptors.
Solutions were applied from 96-well plates via disposable tips. Drug applications were 12 s in duration, followed by 181 s washout periods for α7 receptors, or 6 s in duration followed by 301 s washout periods for heteromeric nAChR. The responses were calculated as both peak current amplitudes and net charge, as previously described. Data were collected at 50 Hz, filtered at 20 Hz for α7 receptors or filtered at 5 Hz for heteromeric nAChR, and analyzed by Clampfit (Molecular Devices, San Jose, CA, USA) and Excel (Microsoft, Redmond, WA, USA). Data were expressed as means ± SEM from at least four oocytes for each experiment and plotted with Kaleidagraph 4.5.2 (Abelbeck Software, Reading, PA, USA). Multi-cell averages were calculated for comparisons of complex responses. Averages of the normalized data were calculated for each of the 10,322 points in each of the 206.44 s traces (acquired at 50 Hz), as well as the standard errors for those averages.

[2] = target: T2, α4(2)β2(3) (Homo sapiens, UniProt P17787+P43681); assay: Activation of heteromeric nAChR by S1: α4(2)β2(3); type: cell-based
T2 construct: expressed in transfected cells; host or cells: Xenopus laevis oocytes (injected RNA)
T2 sequence (P17787 26-502): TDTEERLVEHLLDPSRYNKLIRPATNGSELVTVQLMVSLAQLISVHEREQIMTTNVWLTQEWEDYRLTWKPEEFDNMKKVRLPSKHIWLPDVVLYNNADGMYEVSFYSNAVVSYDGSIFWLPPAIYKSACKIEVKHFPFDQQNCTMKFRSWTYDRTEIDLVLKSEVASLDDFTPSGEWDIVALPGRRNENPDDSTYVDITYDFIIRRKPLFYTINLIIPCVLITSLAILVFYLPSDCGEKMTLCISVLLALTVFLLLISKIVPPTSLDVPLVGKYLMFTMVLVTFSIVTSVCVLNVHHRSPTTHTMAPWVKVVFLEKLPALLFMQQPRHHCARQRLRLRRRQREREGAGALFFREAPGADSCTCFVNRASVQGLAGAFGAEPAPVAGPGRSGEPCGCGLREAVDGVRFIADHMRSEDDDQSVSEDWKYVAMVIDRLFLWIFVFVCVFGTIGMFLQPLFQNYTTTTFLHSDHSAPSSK
T2 sequence (P43681 29-627 limits assumed): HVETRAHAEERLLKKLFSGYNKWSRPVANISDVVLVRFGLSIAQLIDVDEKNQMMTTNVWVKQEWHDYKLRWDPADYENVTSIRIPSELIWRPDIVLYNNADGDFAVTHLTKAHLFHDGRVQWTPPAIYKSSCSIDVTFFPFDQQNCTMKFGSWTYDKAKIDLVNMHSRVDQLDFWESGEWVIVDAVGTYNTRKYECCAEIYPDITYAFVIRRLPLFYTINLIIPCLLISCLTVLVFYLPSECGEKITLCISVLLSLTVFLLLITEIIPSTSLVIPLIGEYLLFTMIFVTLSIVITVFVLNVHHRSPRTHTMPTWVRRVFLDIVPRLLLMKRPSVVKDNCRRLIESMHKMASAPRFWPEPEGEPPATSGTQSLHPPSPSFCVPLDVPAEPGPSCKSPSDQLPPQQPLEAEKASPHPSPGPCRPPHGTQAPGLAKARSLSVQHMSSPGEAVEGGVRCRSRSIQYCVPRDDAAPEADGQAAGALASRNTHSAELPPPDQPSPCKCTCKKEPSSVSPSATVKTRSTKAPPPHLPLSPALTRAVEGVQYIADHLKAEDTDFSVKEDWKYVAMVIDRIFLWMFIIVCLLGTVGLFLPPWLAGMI
T2 sequence (P17787 26-502): as the sequence (P17787 26-502) above
Excerpt: (§1) Concatamers were used in order to obtain heteromeric receptors with known subunit composition. The β2-6-α4 concatamer was co-expressed with monomeric α4, β2, or α5 to obtain receptors with the composition α4(3)β2(2), α4(2)β2(3), or α4(2)β2(2)α5, respectively. A concatamer of five linked subunits was used to obtain the β3α4 β2α6β2 receptors. The α3β4 receptors were formed from the co-expression of α3 and β4 subunit monomers at equal ratios. Note that the data were initially measured relative to internal ACh control responses for each oocyte (Methods). Responses were subsequently adjusted for the relative values of the ACh controls and the ACh maximum responses for each of the various subtypes, determined in previous experiments.
(§2) Figure 6 Activation of heteromeric neuronal nAChR by S1. […] Data are the average peak currents (n = 6–8 oocytes ± SEM), measured relative to initial ACh control responses for each oocyte (concentrations listed in Methods). Responses were subsequently adjusted for the relative values of the ACh controls and the ACh maximum responses for each of the various subtypes, determined in previous experiments. […]
(§3) Solutions were applied from 96-well plates via disposable tips. […] The responses were calculated as both peak current amplitudes and net charge, as previously described. […] Multi-cell averages were calculated for comparisons of complex responses. […]

[3] = target: T3, β3α4 β2α6β2 (Homo sapiens, UniProt P17787+P43681+Q15825); assay: Activation of heteromeric nAChR by S1: β3α4β2α6β2 concatamer; type: cell-based
T3 construct: expressed in transfected cells; host or cells: Xenopus laevis oocytes (injected RNA)
T3 sequence (P43681 29-627 limits assumed): as the sequence (P43681 29-627 limits assumed) above
T3 sequence (P17787 26-502): as the sequence (P17787 26-502) above
T3 sequence (Q15825 26-494): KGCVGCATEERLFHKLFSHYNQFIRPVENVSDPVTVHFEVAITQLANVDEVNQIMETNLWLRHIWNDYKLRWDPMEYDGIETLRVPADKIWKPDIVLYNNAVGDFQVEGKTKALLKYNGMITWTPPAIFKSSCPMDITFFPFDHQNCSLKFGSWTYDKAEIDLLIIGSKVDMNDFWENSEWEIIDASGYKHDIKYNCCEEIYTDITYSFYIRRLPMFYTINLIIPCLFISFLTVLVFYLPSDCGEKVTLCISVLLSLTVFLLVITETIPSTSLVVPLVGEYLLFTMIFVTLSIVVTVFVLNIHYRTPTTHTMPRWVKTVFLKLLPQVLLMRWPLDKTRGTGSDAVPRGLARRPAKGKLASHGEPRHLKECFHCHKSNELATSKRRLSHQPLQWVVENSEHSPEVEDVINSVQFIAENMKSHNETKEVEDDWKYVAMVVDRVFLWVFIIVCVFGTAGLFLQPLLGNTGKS
Excerpt: as §1, §2, §3

[4] = tested on: neuronal heteromeric receptors; assay: Activation of neuronal heteromeric nAChR (panel); type: cell-based, human; conditions: all heteromeric subtypes tested
Excerpt: as §1, with “experiments. […]” for “experiments.”
Solutions were applied from 96-well plates via disposable tips. […] The responses were calculated as both peak current amplitudes and net charge, as previously described. Data were collected at 50 Hz, filtered at 20 Hz for α7 receptors or filtered at 5 Hz for heteromeric nAChR, and analyzed by Clampfit (Molecular Devices, San Jose, CA, USA) and Excel (Microsoft, Redmond, WA, USA). Data were expressed as means ± SEM from at least four oocytes for each experiment and plotted with Kaleidagraph 4.5.2 (Abelbeck Software, Reading, PA, USA). Multi-cell averages were calculated for comparisons of complex responses. […]

[5] = peak currents relative to ACh maximum

In the case of `C[S+](C)C.[I-]` [Compound S1, trimethylsulfonium iodide], the “average net-charge response, % of the control responses to 60 µM ACh” value ([1]; 100 µM compound applied alone, same cells) is reported as 47 ± 6%, the “ability to activate α7 when applied alone” value ([1]; net charge) is reported as “activated receptors” and the “ability to activate α7 when applied alone” value ([1]; net charge, listed as trimethylsulfonium) is reported as “partial agonist”. The Imax ([1]; net charge, n = 8, normalized to ACh maximum, Hill fit) was 84 ± 0.3 % ACh Imax, the EC50 ([1]; α7, Hill fit, Table 2, unit printed in text b9 only, read-out: EC50 (S1 Activation)) was 98 ± 0.5 µM and the “IMax (S1 Activation)” value ([1]; α7, relative to ACh maximum, Hill fit, Table 2) was 0.84 ± 0.01. The “IMax (S1 Activation)” value [2, 5] was 0.89 ± 0.44, the EC50 ([2]; peak currents, unit inferred) was 1060 ± 1240 µM and the “IMax (S1 Activation)” value [3, 5] was 0.71 ± 0.35. For the same compound, the EC50 ([3]; peak currents, unit inferred) was 333 ± 51 µM and the “activation of neuronal heteromeric receptors” value [4] was “activates all the neuronal heteromeric receptors tested”.
